In BindingDB's records for doi:10.1021/np980119+ (University of California, 1999):

Test: Inhibition of phorbol ester-induced ornithine decarboxylase in human MCF7 cells after 6 hrs

Row | SMILES | IC50
1 | COc1cc(/C=C/C(=O)c2ccc3c(c2O)C=CC(C)(C)O3)ccc1O [3-methoxy-4-hydroxylonchocarpin] | 3.6 µM
2 | Oc1ccc(/C=C/c2cc(O)cc(O)c2)cc1 [5-[(E)-2-(4-hydroxyphenyl)ethenyl]benzene-1,3-diol] | 19 µM
3 | COc1cc([C@@H]2CC(=O)c3c(O)c(CC=C(C)C)c4c(c3O2)C=CC(C)(C)O4)ccc1O [(2S)-6-(gamma,gamma-dimethylallyl)-5,4'-dihydroxy-3'-methoxy-6'',6''-dimethylpyran[2'',3'':7,8]flavanone] | 1.1 µM
4 | O=c1c(-c2ccc(O)cc2)coc2cc(O)cc(O)c12 [Prunetol] | 26 µM
5 | COc1cc(/C=C/c2cc(OC)c3c(c2)OC(C)(C)C=C3)ccc1O [3,5'-dimethoxy-4-hydroxy-6'',6''-dimethylpyran[2'',3'':3',4']stilbene] | 7.4 µM
6 | COc1cc(/C=C/c2ccc3c(c2)OC(C)(C)C=C3)cc(OC)c1OC [3,4,5-trimethoxy-6'',6''-dimethylpyran[2'',3'':3',4']stilbene] | 3.9 µM
7 | COc1ccc([C@@H]2CC(=O)c3cc(CC=C(C)C)c4c(c3O2)C=CC(C)(C)O4)cc1OC [(2S)-6-(gamma,gamma-dimethylallyl)-3',4'-dimethoxy-6'',6''-dimethylpyran[2'',3'':7,8]flavanone] | 2.3 µM
